Assay results taken from ChEMBL document CHEMBL3885861, “Open TG-GATES”.

Species: Rattus norvegicus
Experiment: Open TG-GATES - Regimen: Daily Repeat
Format: toxicity, organism-based, Sprague-Dawley
Design: regimen Daily Repeat, gender Male, age 6 weeks
Details: in vivo, iv, route intravenous injection; for APTT / Bas / Eos / Fbg / Hb / Ht / Lym / MCH / MCHC / MCV / Mono / Neu / PT / Plat / RBC / Ret / WBC: tissue Blood; for KIDNEY_L / KIDNEY_R / KIDNEY_TOTAL: tissue Kidney; for LIVER: tissue Liver; for A/G / ALP / ALT / AST / BUN / CRE / Ca / Cl / DBIL / GLC / IP / K / LDH / Na / PL / RALB / TBIL / TC / TG / TP / gamma-GTP: tissue Plasma
[1] = 0 mg/kg, 72 h, dose level Control, time 3 day
[2] = 0 mg/kg, […], dose level Control, time 7 day
[3] = 0 mg/kg, […], dose level Control, time 14 day
[4] = 0 mg/kg, […], dose level Control, time 28 day
[5] = 4 mg/kg, 72 h, dose level Low, time 3 day
[6] = 4 mg/kg, […], dose level Low, time 7 day
[7] = 4 mg/kg, […], dose level Low, time 14 day
[8] = 4 mg/kg, […], dose level Low, time 28 day

Q: Which results are given for `CN(C)c1ncnc2c1ncn2[C@@H]1O[C@H](CO)[C@@H](N)[C@H]1O` [PUROMYCIN AMINONUCLEOSIDE]?
A: TERMINAL_BW [1]: 230.5 g; APTT [1]: 22.1 s; Bas [1]: 0%; Eos [1]: 1%; Fbg [1]: 290.4 mg/dL; Hb [1]: 12.9 g/dL; Ht [1]: 37.6%; Lym [1]: 76.8%; MCH [1]: 21.1 pg; MCHC [1]: 34.2%; MCV [1]: 61.7 fL; Mono [1]: 2.6%; Neu [1]: 18.8%; PT [1]: 16.1 s; Plat [1]: 127.4 x10_4/uL; RBC [1]: 610 x10_4/ul; Ret [1]: 5.7%; WBC [1]: 113.8 x10_2/uL; KIDNEY_L [1]: 1 g; KIDNEY_R [1]: 1 g; KIDNEY_TOTAL [1]: 2 g; LIVER [1]: 10.3 g; A/G [1]: 1.3; ALP [1]: 1374.2 IU/L; ALT [1]: 40.6 IU/L; AST [1]: 74 IU/L; BUN [1]: 17.2 mg/dL; CRE [1]: 0.2 mg/dL; Ca [1]: 10.9 mg/dL; Cl [1]: 106.6 meq/L; DBIL [1]: 0 mg/dL; GLC [1]: 195.8 mg/dL; IP [1]: 6.8 mg/dL; K [1]: 4.7 meq/L; LDH [1]: 183.8 IU/L; Na [1]: 142.2 meq/L; PL [1]: 141.6 mg/dL; RALB [1]: 3.1 g/dL; TBIL [1]: 0.008 mg/dL; TC [1]: 73.2 mg/dL; TG [1]: 95.2 mg/dL; TP [1]: 5.4 g/dL; gamma-GTP [1]: 1.8 IU/L; TERMINAL_BW [2]: 262.2 g; TERMINAL_BW [3]: 322.5 g; TERMINAL_BW [4]: 396.1 g; APTT [2]: 22.5 s; Bas [2]: 0%; Eos [2]: 1%; Fbg [2]: 274.8 mg/dL; Hb [2]: 13.7 g/dL; Ht [2]: 39.4%; Lym [2]: 80.4%; MCH [2]: 21.3 pg; MCHC [2]: 34.9%; MCV [2]: 61 fL; Mono [2]: 2%; Neu [2]: 15.6%; PT [2]: 16 s; Plat [2]: 111 x10_4/uL; RBC [2]: 645.6 x10_4/ul; Ret [2]: 4.8%; WBC [2]: 97.9 x10_2/uL; APTT [3]: 22 s; Bas [3]: 0%; Eos [3]: 0.8%; Fbg [3]: 293.8 mg/dL; Hb [3]: 14 g/dL; Ht [3]: 39.5%; Lym [3]: 79.4%; MCH [3]: 20.6 pg; MCHC [3]: 35.5%; MCV [3]: 58.3 fL; Mono [3]: 3.2%; Neu [3]: 15%; PT [3]: 16.3 s; Plat [3]: 109.5 x10_4/uL; RBC [3]: 679 x10_4/ul; Ret [3]: 3.4%; WBC [3]: 120 x10_2/uL; APTT [4]: 25.7 s; Bas [4]: 0%; Eos [4]: 1%; Fbg [4]: 299.6 mg/dL; Hb [4]: 15.2 g/dL; Ht [4]: 42.3%; Lym [4]: 74.6%; MCH [4]: 19.6 pg; MCHC [4]: 35.8%; MCV [4]: 54.8 fL; Mono [4]: 3.4%; Neu [4]: 19.6%; PT [4]: 16.3 s; Plat [4]: 105.3 x10_4/uL; RBC [4]: 772.2 x10_4/ul; Ret [4]: 2.2%; WBC [4]: 111.8 x10_2/uL; KIDNEY_L [2]: 1 g; KIDNEY_R [2]: 1.1 g; KIDNEY_TOTAL [2]: 2.1 g; KIDNEY_L [3]: 1.2 g; KIDNEY_R [3]: 1.2 g; KIDNEY_TOTAL [3]: 2.4 g; KIDNEY_L [4]: 1.3 g; KIDNEY_R [4]: 1.3 g; KIDNEY_TOTAL [4]: 2.7 g; LIVER [2]: 12.2 g; LIVER [3]: 13.6 g; LIVER [4]: 14.9 g; A/G [2]: 1.2; ALP [2]: 1257.2 IU/L; ALT [2]: 35.4 IU/L; AST [2]: 63 IU/L; BUN [2]: 17.6 mg/dL; CRE [2]: 0.2 mg/dL; Ca [2]: 10.7 mg/dL; Cl [2]: 105.6 meq/L; DBIL [2]: 0 mg/dL; GLC [2]: 210.6 mg/dL; IP [2]: 7.3 mg/dL; K [2]: 4 meq/L; LDH [2]: 167.4 IU/L; Na [2]: 142 meq/L; PL [2]: 141.6 mg/dL; RALB [2]: 3 g/dL; TBIL [2]: 0.018 mg/dL; TC [2]: 67.2 mg/dL; TG [2]: 108.8 mg/dL; TP [2]: 5.5 g/dL; gamma-GTP [2]: 1.4 IU/L; A/G [3]: 1.3; ALP [3]: 1494.8 IU/L; ALT [3]: 36.8 IU/L; AST [3]: 69.4 IU/L; BUN [3]: 19.2 mg/dL; CRE [3]: 0.2 mg/dL; Ca [3]: 10.9 mg/dL; Cl [3]: 104.6 meq/L; DBIL [3]: 0 mg/dL; GLC [3]: 204.2 mg/dL; IP [3]: 7.2 mg/dL; K [3]: 4.3 meq/L; LDH [3]: 176.8 IU/L; Na [3]: 141.6 meq/L; PL [3]: 144.4 mg/dL; RALB [3]: 3.1 g/dL; TBIL [3]: 0.006 mg/dL; TC [3]: 65.8 mg/dL; TG [3]: 119.8 mg/dL; TP [3]: 5.6 g/dL; gamma-GTP [3]: 2 IU/L; A/G [4]: 1; ALP [4]: 1115.6 IU/L; ALT [4]: 31 IU/L; AST [4]: 60.5 IU/L; BUN [4]: 18.6 mg/dL; CRE [4]: 0.2 mg/dL; Ca [4]: 10.4 mg/dL; Cl [4]: 104.2 meq/L; DBIL [4]: 0 mg/dL; GLC [4]: 184.8 mg/dL; IP [4]: 6.1 mg/dL; K [4]: 4.2 meq/L; LDH [4]: 174 IU/L; Na [4]: 142.6 meq/L; PL [4]: 133.4 mg/dL; RALB [4]: 3.1 g/dL; TBIL [4]: 0.01 mg/dL; TC [4]: 68.2 mg/dL; TG [4]: 101.2 mg/dL; TP [4]: 6.1 g/dL; gamma-GTP [4]: 2 IU/L; TERMINAL_BW [5]: 232.9 g; APTT [5]: 20.8 s; Bas [5]: 0%; Eos [5]: 1%; Fbg [5]: 318.6 mg/dL; Hb [5]: 13.1 g/dL; Ht [5]: 38.3%; Lym [5]: 78.6%; MCH [5]: 21.3 pg; MCHC [5]: 34.3%; MCV [5]: 62.1 fL; Mono [5]: 3%; Neu [5]: 16.2%; PT [5]: 15.9 s; Plat [5]: 136.9 x10_4/uL; RBC [5]: 616 x10_4/ul; Ret [5]: 5.3%; WBC [5]: 98.6 x10_2/uL; KIDNEY_L [5]: 1 g; KIDNEY_R [5]: 1 g; KIDNEY_TOTAL [5]: 1.9 g; LIVER [5]: 10.2 g; A/G [5]: 1.3; ALP [5]: 1424.8 IU/L; ALT [5]: 40.8 IU/L; AST [5]: 73.4 IU/L; BUN [5]: 17.4 mg/dL; CRE [5]: 0.2 mg/dL; Ca [5]: 11.1 mg/dL; Cl [5]: 104.2 meq/L; DBIL [5]: 0 mg/dL; GLC [5]: 189.4 mg/dL; IP [5]: 7.6 mg/dL; K [5]: 4.4 meq/L; LDH [5]: 200.6 IU/L; Na [5]: 141.6 meq/L; PL [5]: 149.2 mg/dL; RALB [5]: 3 g/dL; TBIL [5]: 0.02 mg/dL; TC [5]: 76 mg/dL; TG [5]: 102.2 mg/dL; TP [5]: 5.5 g/dL; gamma-GTP [5]: 1.2 IU/L; TERMINAL_BW [6]: 256.3 g; TERMINAL_BW [7]: 310.3 g; TERMINAL_BW [8]: 371.4 g; APTT [6]: 21 s; Bas [6]: 0%; Eos [6]: 1.4%; Fbg [6]: 282.8 mg/dL; Hb [6]: 13.4 g/dL; Ht [6]: 38.8%; Lym [6]: 76.4%; MCH [6]: 20.5 pg; MCHC [6]: 34.4%; MCV [6]: 59.4 fL; Mono [6]: 2%; Neu [6]: 19.2%; PT [6]: 15.9 s; Plat [6]: 118.6 x10_4/uL; RBC [6]: 654.8 x10_4/ul; Ret [6]: 3.7%; WBC [6]: 112.4 x10_2/uL; APTT [7]: 23.5 s; Bas [7]: 0%; Eos [7]: 0.8%; Fbg [7]: 303.4 mg/dL; Hb [7]: 13.6 g/dL; Ht [7]: 38.9%; Lym [7]: 77.8%; MCH [7]: 20.7 pg; MCHC [7]: 35%; MCV [7]: 59.1 fL; Mono [7]: 2.4%; Neu [7]: 18%; PT [7]: 16.3 s; Plat [7]: 133.5 x10_4/uL; RBC [7]: 658 x10_4/ul; Ret [7]: 4.7%; WBC [7]: 105.4 x10_2/uL; APTT [8]: 23.1 s; Bas [8]: 0%; Eos [8]: 1.6%; Fbg [8]: 538.4 mg/dL; Hb [8]: 14.5 g/dL; Ht [8]: 40%; Lym [8]: 72.8%; MCH [8]: 20.2 pg; MCHC [8]: 36.3%; MCV [8]: 55.6 fL; Mono [8]: 3.2%; Neu [8]: 21.8%; PT [8]: 14.6 s; Plat [8]: 134.3 x10_4/uL; RBC [8]: 719.6 x10_4/ul; Ret [8]: 2.5%; WBC [8]: 156.1 x10_2/uL; KIDNEY_L [6]: 1 g; KIDNEY_R [6]: 1.1 g; KIDNEY_TOTAL [6]: 2.1 g; KIDNEY_L [7]: 1.2 g; KIDNEY_R [7]: 1.3 g; KIDNEY_TOTAL [7]: 2.5 g; KIDNEY_L [8]: 1.5 g; KIDNEY_R [8]: 1.4 g; KIDNEY_TOTAL [8]: 2.9 g; LIVER [6]: 11 g; LIVER [7]: 12.6 g; LIVER [8]: 16.8 g; A/G [6]: 1.2; ALP [6]: 1296.4 IU/L; ALT [6]: 37.8 IU/L; AST [6]: 67.8 IU/L; BUN [6]: 17 mg/dL; CRE [6]: 0.2 mg/dL; Ca [6]: 10.6 mg/dL; Cl [6]: 107.2 meq/L; DBIL [6]: 0 mg/dL; GLC [6]: 180.6 mg/dL; IP [6]: 6.7 mg/dL; K [6]: 4.1 meq/L; LDH [6]: 149.6 IU/L; Na [6]: 142.6 meq/L; PL [6]: 139.4 mg/dL; RALB [6]: 3 g/dL; TBIL [6]: 0.014 mg/dL; TC [6]: 73.4 mg/dL; TG [6]: 87.8 mg/dL; TP [6]: 5.5 g/dL
